# Experimental data from publication PMC3048764 (Brain research, 2010).
# Assays:
# uterine weights = assay: Uterine weight; details: 1 day of exposure
# [1] = tested on: HT-22 (murine hippocampal) cells; details: cited from earlier work; for neuroprotection against toxicity, in words: compared with βE2 or parent compound, ref Perez et al., 2005b; for neuroprotection of non-phenolic estrogens, in words: all of the structure-activity studies
# ERα = details: competitive binding; ref Perez et al. (2005b); cited from earlier work
# ERβ = details: competitive binding; ref Perez et al. (2005b); cited from earlier work
# [2] = tested on: HT-22 (murine hippocampal) cells; type: cell-based; details: insult not named
# [3] = tested on: HT-22 (murine hippocampal) cells; details: cited from earlier work
# [4] = tested on: SK-N-SH neuroblastoma cells; details: up to 200 nM; ref Green et al. (1997b); cited from earlier work
# [5] = tested on: HT-22 (murine hippocampal) cells; assay: Neuroprotection against glutamate toxicity, calcein-AM viability assay; type: cell-based; details: 10 μM concentration, paradigm of Behl's group (1997)
# HT-22 cells = assay: DCF assay of reactive oxygen species, glucose oxidase insult; type: cell-based; details: HT-22 cells insulted with glucose oxidase
# [6] = tested on: lipid peroxidation in rat brain homogenates; details: read-out: IC50 of lipid peroxidation seen by other groups; ref Hall et al., 1991; cited from earlier work
structure (smiles),measurement,setting,value
"C[C@]12CC[C@@H]3c4ccc(O)cc4CC[C@H]3[C@@H]1CCC2=O [Compound E1, estrone]",increase of uterine weights,uterine weights,71%
C[C@]12CC(O)[C@@H]3c4ccc(O)cc4CC[C@H]3[C@@H]1CCC2=O (stereo partly shown) [Compound E1240],"neuroprotection against toxicity, in words",[1],neuroprotection was completely abolished
CC12CCC3c4ccc(O)cc4CCC3C1CCC2O (stereo not shown) [PS2],"neuroprotection against toxicity, in words",[1],reduced neuroprotective potencies
C[C@]12CC=C3c4ccc(O)cc4CC[C@H]3[C@@H]1CC[C@@H]2O [ZYC1],"ERα binding, in words",ERα,did not drastically change the affinity
same,"ERβ binding, in words",ERβ,did not drastically change the affinity
C[C@]12CC[C@@H]3c4ccc(O)cc4CC[C@H]3[C@@H]1CC1(CCCC1)C2=O [ZYC2],"neuroprotection against toxicity, in words",[1],did not enhance neuroprotection
CCC(C)c1c(O)ccc2c1CC[C@@H]1[C@@H]2CC[C@]2(C)C(=O)CC[C@@H]12 (stereo partly shown) [ZYC17],"ERα binding, in words",ERα,completely inhibited estrogen receptor binding
same,"ERβ binding, in words",ERβ,completely inhibited estrogen receptor binding
"COc1cc2c(cc1C13CC4CC(CC(C4)C1)C3)[C@H]1CC[C@]3(C)[C@@H](O)CC[C@H]3[C@@H]1CC2 [ZYC23, 3-O-methyl analog of (17beta)-2-(1-adamantyl)estradiol]","neuroprotection against toxicity, in words",[1],failed to protect cells against toxicity induced cell death
"Cc1c(O)c(C23CC4CC(CC(C4)C2)C3)cc2c1CC[C@@H]1[C@@H]2CC[C@]2(C)C(=O)CC[C@@H]12 [ZYC26, 2-(1-adamantyl)-4-methylestrone]","fold decrease in EC50 for protection against neurotoxicity, first value",[2]; first of two values given 'respectively',approximately 9 fold
same,"fold decrease in EC50 for protection against neurotoxicity, second value",[2]; second of two values given 'respectively',~4 fold
same,"ERα binding, in words",ERα,completely abolished the affinity
same,"ERβ binding, in words",ERβ,completely abolished the affinity
C[C@]12CC[C@@H]3c4ccc(O)cc4CC[C@H]3[C@@H]1CC[C@@H]2OC(=O)c1ccccc1 [ZYC30],"neuroprotection against toxicity, in words",[1],decreased the potency of the parent compound
C#C[C@]1(O)CC[C@H]2[C@@H]3CCc4cc(OC)ccc4[C@H]3CC[C@@]21C [mestranol],"neuroprotection of non-phenolic estrogens, in words",[1],did not have protect effects
CC(=O)[C@H]1CC[C@H]2[C@@H]3CC[C@@H]4C[C@H](O)CC[C@]4(C)[C@H]3CC[C@]12C [pregnanolone],protection against glutamate insult at high dose,"[3]; 10 μM dose, ref Gursoy et al. (2001)",no protection
same,concentration of optimal protection against glutamate insult,[3]; ref Gursoy et al. (2001),500 nM
CC(=O)[C@H]1CC[C@H]2[C@@H]3CCC4=CC(=O)CC[C@]4(C)[C@H]3CC[C@]12C [progesterone],neuroprotection against glutamate insult,"[3]; 10 μM, ref Behl et al. (1997)",did not find 10 μM progestrone (P4) to be neuroprotective
same,protection against serum deprivation,[4],did not find progesterone to be protectiive
C#C[C@]1(O)CC[C@H]2[C@@H]3CCc4cc(OC5CCCC5)ccc4[C@H]3CC[C@@]21C [quinestrol],"neuroprotection of non-phenolic estrogens, in words",[1],did not have protect effects
C[C@]12CC[C@@H]3c4ccc(O)cc4CC[C@H]3[C@@H]1CC[C@H]2O [αE2],"ERα binding, in words",ERα,less affinity
same,"ERβ binding, in words",ERβ,less affinity
"C[C@]12CC[C@@H]3c4ccc(O)cc4CC[C@H]3[C@@H]1CC[C@@H]2O [βE2, 17β-estradiol]",protection against glutamate toxicity at fixed concentration,[5],protective
same,decrease of ROS,HT-22 cells,not able to significantly decrease ROS
same,IC50,[6],21 µM
